Test results taken from patent US8178543B2, “Bi- and tricyclic fused pyrimidines as tyrosine kinase inhibitors” (Takeda Pharmaceutical Company Limited, priority 2004, dated 2012).

What follows are compounds tested against T1, HER2 intracellular domain (Homo sapiens, UniProt P04626) (assay: Determination of HER2 kinase inhibitory activity). Conditions: 1.0 μM test compound; poly-Glu:Tyr (4:1) substrate, [γ-32P]ATP, 25° C., 10 min; read-out: HER2 kinase Inhibitory rate (%) at 1.0 μM.
T1 construct: made in house; host or cells: SF-21 insect cells, recombinant baculovirus BAC-HER2
T1 sequence (P04626 676-1255 limits assumed): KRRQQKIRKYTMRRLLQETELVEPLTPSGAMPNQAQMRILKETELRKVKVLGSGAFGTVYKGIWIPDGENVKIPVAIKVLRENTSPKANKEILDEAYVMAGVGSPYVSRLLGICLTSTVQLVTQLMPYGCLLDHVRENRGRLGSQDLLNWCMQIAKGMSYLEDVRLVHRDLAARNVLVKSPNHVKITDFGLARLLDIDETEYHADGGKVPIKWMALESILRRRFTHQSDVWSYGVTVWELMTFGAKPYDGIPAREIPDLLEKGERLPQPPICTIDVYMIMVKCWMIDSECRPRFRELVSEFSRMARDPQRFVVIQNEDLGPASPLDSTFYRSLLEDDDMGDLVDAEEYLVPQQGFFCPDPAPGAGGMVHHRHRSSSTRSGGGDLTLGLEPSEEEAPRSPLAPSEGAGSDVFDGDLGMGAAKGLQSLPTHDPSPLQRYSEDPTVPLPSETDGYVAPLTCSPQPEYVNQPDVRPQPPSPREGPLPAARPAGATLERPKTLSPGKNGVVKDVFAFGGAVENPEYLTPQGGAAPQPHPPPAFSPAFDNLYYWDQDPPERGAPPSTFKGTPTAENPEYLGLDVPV
Type: biochemical
Description: Human HER2 gene was cloned by RT-PCR using total RNA prepared from MCF7 cells as a template. The primer used for RT-PCR was prepared from nucleotide sequence (Genbank Accession M11730) information of HER2 gene by adding a nucleotide sequence encoding flag peptide and a restriction enzyme recognition sequence to a nucleotide sequence (2176-3918 of Genbank Accession M11730) encoding the HER2 intracellular domain region, so that the protein contains an N-terminal Flag tag. The primer nucleotide sequence is shown below.
The RT reaction was conducted using SuperScript First-Strand Synthesis System for RT-PCR (Invitrogen) and the PCR reaction was conducted using a KOD-plus kit (TOYOBO). The obtained PCR product was electrophoresed on agarose gel (1%), the DNA fragment amplified by PCR was recovered from the gel, and then digested with restriction enzymes Sal I and Sph I. The DNA treated with the restriction enzymes was electrophoresed on agarose gel (1%), and the obtained DNA fragment was recovered and ligated to plasmid pFASTBAC1 (Invitrogen) digested with restriction enzymes Sal I and Sph I to give expression plasmid pFB-HER2. The nucleotide sequence of the insertion fragment was confirmed and found to be identical with the nucleotide sequence (2176-3918 of Genbank Accession M11730) of HER2 intracellular domain. Furthermore, using BAC-TO-BAC Baculovirus Expression System (Invitrogen), recombinant baculovirus BAC-HER2 was prepared.
SF-21 cells were sown at 1×10^6 cells/mL to Sf-900II SFM medium (1 L, Invitrogen) containing 10% fetal bovine serum (trace), 50 mg/L gentamicin (Invitrogen) and 0.1% Pluronic F-68 (Invitrogen), and shaking culture was performed using a 2 L volume Erlenmeyer flask at 27° C., 100 rpm. After culturing for 24 hrs, recombinant baculovirus BAC-HER2 (13.4 mL) was added, and the mixture was further cultured for 3 days. The culture medium was centrifuged at 2,000 rpm for 5 min. to give virus-infected cells. The infected cells were washed with a phosphate buffered saline (Invitrogen), centrifuged under the same conditions, and the cells were preserved at −80° C. The cryopreserved cells were thawed in ice, suspended in buffer A (50 mM Tris buffer (30 mL, pH 7.4) containing 20% glycerol, 0.15 M NaCl) supplemented with Complete Protease Inhibitor (Boehringer), and ruptured 3 times with a Polytron homogenizer (Kinematica) at 20,000 rpm for 30 sec. The rupture medium was clarified by centrifugation at 40,000 rpm for 30 min. and filtered with a 0.45 μm filter. The filtrate was passed through a column packed with Anti-FLAG M2 Affinity Gel (4 mL, Sigma) at a flow rate of about 0.5 mL/min. The column was washed with buffer A, and eluted with buffer A containing 100 μg/mL of FLAG peptide. The eluate was concentrated with Vivaspin 20 (Vivascience) having a molecular weight cut off of 30K. The concentrate was purified by gel filtration using Hi Load Superdex 200 pg 16/60 (Amersham Bioscience) equilibrated with buffer A. The fractions containing HER2 intracellular domain were collected, glycerol was added to the final concentration of 50% and cryopreserved at −80° C.
A test compound dissolved in dimethyl sulfoxide (DMSO) was diluted with a buffer for kinase reaction (50 mM Tris-HCl (pH7.5), 5 mM MgCl2, 5 mM MnCl2, 2 mM dithiothreitol, 0.01% Tween-20). To this compound solution (10 μL) was added a buffer for kinase reaction (20 μL) containing 5 μg/mL of HER2 intracellular domain obtained in Experimental Example 1B and 12.5 μg/mL of polypeptide substrate poly-Glu:Tyr (4:1) (Sigma). To the obtained mixture was added 20 μL of ATP solution (1.25 μM ATP, 0.05 μCi [γ-^32P]ATP), the mixture was allowed to react at 25° C. for 10 min. and the reaction was quenched with 50 μL of 20% TCA solution. The reaction solution was allowed to stand at 4° C. for 20 min., and the acid insoluble fraction was transferred to GF/C filter (PerkinElmer) using cell harvester (PerkinElmer) and washed with 250 mM phosphoric acid solution. […]

| Compound | inhibition at 1 µM [%] |
| --- | --- |
| Cc1ccc(Oc2ccc(Nc3ncnc4cc(/C=C/CO)[nH]c34)cc2C)cn1 [Example 13, (2E)-3-[4-({3-methyl-4-[(6-methylpyridin-3-yl)oxy]phenyl}amino)-5H-pyrrolo[3,2-d]pyrimidin-6-yl]-2-propen-1-ol] | 94.9 |
| CCOCCn1ccc2ncnc(Nc3ccc(OCc4cccc(F)c4)c(Cl)c3)c21 [Example 38, N-{3-chloro-4-[(3-fluorobenzyl)oxy]phenyl}-5-(2-ethoxyethyl)-5H-pyrrolo[3,2-d]pyrimidin-4-amine] | 95.9 |
| Cn1ccc2ncnc(Nc3ccc(OCc4cccc(F)c4)c(Cl)c3)c21 [Example 39, N-{3-chloro-4-[(3-fluorobenzyl)oxy]phenyl}-5-methyl-5H-pyrrolo[3,2-d]pyrimidin-4-amine] | 96.1 |

The remaining lines, values ahead:

| inhibition at 1 µM [%] | Compound |
| --- | --- |
| 87 | CC(C)(O)CC(=O)NCCn1ccc2ncnc(Nc3ccc(Oc4cccc(C(F)(F)F)c4)c(Cl)c3)c21 [Example 158, N-{2-[4-({3-chloro-4-[3-(trifluoromethyl)phenoxy]phenyl}amino)-5H-pyrrolo[3,2-d]pyrimidin-5-yl]ethyl}-3-hydroxy-3-methylbutanamide] |
| 95.9 | Cc1cc(Nc2ncnc3ccn(CCNC(=O)CS(C)(=O)=O)c23)ccc1Oc1cccc(OC(F)(F)F)c1 [Example 190, 2-(methylsulfonyl)-N-{2-[4-({3-methyl-4-[3-(trifluoromethoxy)phenoxy]phenyl}amino)-5H-pyrrolo[3,2-d]pyrimidin-5-yl]ethyl}acetamide] |
| 100 | CS(=O)(=O)CC(=O)NCCn1ccc2ncnc(Nc3ccc(Oc4cccc(Cl)c4)c(Cl)c3)c21 [Example 191, N-[2-(4-{[3-chloro-4-(3-chlorophenoxy)phenyl]amino}-5H-pyrrolo[3,2-d]pyrimidin-5-yl)ethyl]-2-(methylsulfonyl)acetamide] |
